In publication PMC8080067, “Tight binding of cytochrome b5 to cytochrome P450 17A1 is a critical feature of stimulation of C21 steroid lyase activity and androgen synthesis” (The Journal of Biological Chemistry, 2021):
Numbering of substitutions follows the chain as printed. “And” between values parts separate entries of the source, which are not always exact repeats. Identical values can stand only once. Like-named read-outs stand apart in the source and are kept apart here.

Experiments:
Assay in all cases: Substrate-binding spectral titration (type I, ΔA388-A423)
P450 17A1 R347H variant = target: T1, P450 17A1 R347H variant (Homo sapiens, UniProt P05093, R347H)
T1 sequence (P05093 1-508 R347H): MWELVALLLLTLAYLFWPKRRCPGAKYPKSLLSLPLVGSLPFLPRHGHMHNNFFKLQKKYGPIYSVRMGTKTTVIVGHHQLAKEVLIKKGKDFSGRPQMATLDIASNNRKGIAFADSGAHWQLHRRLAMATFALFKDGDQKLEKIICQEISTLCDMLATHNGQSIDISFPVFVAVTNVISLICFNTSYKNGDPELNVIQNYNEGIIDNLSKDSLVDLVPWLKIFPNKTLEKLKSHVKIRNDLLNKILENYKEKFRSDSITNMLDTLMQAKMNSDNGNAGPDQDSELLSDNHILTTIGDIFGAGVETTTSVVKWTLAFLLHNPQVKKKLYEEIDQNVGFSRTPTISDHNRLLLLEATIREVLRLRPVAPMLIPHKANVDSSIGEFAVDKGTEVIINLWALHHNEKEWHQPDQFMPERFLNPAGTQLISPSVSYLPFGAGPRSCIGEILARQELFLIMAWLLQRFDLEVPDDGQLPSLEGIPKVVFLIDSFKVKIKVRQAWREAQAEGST
Method: (§1) The purified enzymes were diluted in 100 mM potassium phosphate buffer (pH 7.4) and divided in two 1.0-ml glass cuvettes. Spectra (350–500 nm) were recorded using an OLIS-DW2 spectrophotometer (On-Line Instrument Systems) with subsequent additions of the substrate. Differences in the absorbance between the wavelength maximum and minimum were plotted versus the substrate concentration ([44]). Kd values were calculated using nonlinear regression analysis in GraphPad Prism software (GraphPad) and the quadratic equation: Y=B+A/2E[(Kd+E+X)−(Kd+E+X)^2−4EX], set in Prism as: Y = B + (A/2) ∗ (1/E) ∗ ((Kd + E + X)-sqrt((Kd + E + X)^ˆ2 - (4 ∗ E ∗ X))).
(§2) Figure S2. […] Increasing concentrations of substrates were added to the sample and reference cuvettes in each case.

WT P450 17A1 = target: T2, WT P450 17A1 (Homo sapiens, UniProt P05093)
T2 sequence (P05093 1-508): T1 sequence (P05093 1-508 R347H) with H347R
Method: as §1, §2

P450 17A1 R358Q variant = target: T3, P450 17A1 R358Q variant (Homo sapiens, UniProt P05093, R358Q)
T3 sequence (P05093 1-508 R358Q): T1 sequence (P05093 1-508 R347H) with H347R, R358Q
Method: as §1, §2

P450 17A1 E305G variant = target: T4, P450 17A1 E305G variant (Homo sapiens, UniProt P05093, E305G)
T4 sequence (P05093 1-508 E305G): T1 sequence (P05093 1-508 R347H) with E305G, H347R
Method: as §1, §2

[1] = Kd of P450 17A1·substrate complex, WT, P450 1.0 µM, quadratic fit

With `CC(=O)[C@H]1CC[C@H]2[C@@H]3CCC4=CC(=O)CC[C@]4(C)[C@H]3CC[C@]12C` [Progesterone] the Kd (P450 17A1 R347H variant) was 230 ± 100 nM, the Kd (WT P450 17A1; [1]) was ~65 nM and 65 nM and the Kd (P450 17A1 R358Q variant) was 260 ± 120 nM. For the same compound, the Kd (P450 17A1 E305G variant) was 170 ± 80 nM.

`CC(=O)C1CCC2C3CC=C4C[C@@H](O)CC[C@]4(C)C3CC[C@]12C` (stereo partly drawn) [Pregnenolone] showed a Kd (P450 17A1 R347H variant) of 120 ± 50 nM, a Kd (WT P450 17A1; [1]) of 140 ± 60 nM and a Kd (P450 17A1 R358Q variant) of 150 ± 60 nM. For the same compound, the Kd (P450 17A1 E305G variant) was 260 ± 80 nM.

`CC(=O)[C@@]1(O)CCC2C3CC=C4C[C@@H](O)CC[C@]4(C)C3CC[C@@]21C` (stereo partly drawn) [17α-OH pregnenolone] was tested, and the Kd (P450 17A1 R347H variant) was 220 ± 100 nM, the Kd (WT P450 17A1) was 110 ± 50 nM and the Kd (P450 17A1 R358Q variant) was 260 ± 120 nM. It also gave a Kd (P450 17A1 E305G variant) of 410 ± 180 nM.
